The nature of series [1]: Metabolic stability in human liver microsomes.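 Also: NADPH-supplemented human liver microsomes sampled at 0, 5, 10, 20, 30 and 60 min, parent compound quantified by LC-MS/MS, intrinsic clearance from first-order decay, no-cofactor incubation as control.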 It is filed as in vitro ADME. Particulars: LM Clint; 1 μM test compound, 0.5 mg protein/mL microsome, 37° C., up to 60 min. (In general: Liver microsomes are vesicles of endoplasmic reticulum, rich in cytochrome P450 enzymes.)
Experimental: Test Compound an Control Working Solution Preparation: Working solution: 5 μL of compound and control stock solution (10 mM in dimethyl sulfoxide (DMSO)) were diluted with 495 µL of acetonitrile (ACN) (intermediate solution concentration: 100 μM, 99% ACN).
Preparation Procedure: The appropriate amount of NADPH powder was weighed and diluted into a 10 mM MgCl2 solution (working solution concentration: 10 unit/mL; final concentration in reaction system: 1 unit/mL).
Preparation Procedure: The appropriate concentrations of microsome working solutions were prepared in 100 mM potassium phosphate buffer.
Stop Solution Preparation: Cold (4° C.) acetonitrile (ACN) containing 200 ng/mL tolbutamide and 200 ng/mL labetalol as internal standards (IS) was used as the stop solution.
Dilute liver microsomes to 0.56 mg/mL in 100 mM phosphate buffer.
Transfer 445 μL microsome working solutions (0.56 mg/mL) into pre-warmed ‘Incubation’ plates T60 and NCF60, Then pre-incubate ‘Incubation’ plates T60 and NCF60 for 10 min at 37° C. with constant shaking. Transfer 54 μL liver microsomes to blank plate, then add 6 μL NAPDH cofactor to blank plate, and then add 180 μL quenching solution to blank plate.
2.5.4 Add 5 μL compound working solution (100 μM) into ‘incubation’ plates (T60 and NCF60) containing microsomes and mix 3 times thoroughly.
For the NCF60 plate, add 50 μL of buffer and mix 3 times thoroughly. Start timing; plate will be incubated at 37° C. for 60 min while shaking.
For the T60 plate, mix 3 times thoroughly, and immediately remove 54 μL mixture for the 0-min time point to ‘Quenching’ plate. Then add 44 μL NAPDH cofactor to incubation plate (T60). Start timing; plate will be incubated at 37° C. for 60 min while shaking.
At 5, 10, 20, 30, and 60 min, add 180 μL quenching solution to ‘Quenching’ plates, mix once, and serially transfer 60 μL sample from T60 plate per time point to ‘Quenching’ plates.
For NCF60: mix once, and transfer 60 μL sample from the NCF60 incubation to ‘Quenching’ plate containing quenching solution at the 60-min time point.
All sampling plates are shaken for 10 min, then centrifuged at 4000 rpm for 20 minutes at 4° C.
Transfer 80 μL supernatant into 240 μL HPLC water, and mix by plate shaker for 10 min.
Each bioanalysis plate was sealed and shaken for 10 minutes prior to LC-MS/MS analysis.
The equation of first order kinetics was used to calculate T½ and Intrinsic clearance (CLint mic) in (L/min/mg).
The next series addresses TNIK(h) (Homo sapiens (Human), UniProt Q9UKE5). Put plainly: TNIK Human STE Kinase Enzymatic Radiometric Assay.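 Also: remaining kinase activity relative to DMSO control, compound added without preincubation, reaction started with ATP, IC50 from variable-slope sigmoidal dose-response fit.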 It is filed as biochemical. Particulars: ATP 70 μM; 40 min at room temperature; read-out: TNIK (IC50).
The next series has as its target MAP4K4 (h) (Homo sapiens (Human), UniProt O95819). Put plainly: MAP4K4 Human STE Kinase Enzymatic Radiometric Assay.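 Also: kinase activity remaining relative to the DMSO control, IC50 derived from sigmoidal variable-slope curve fits, no preincubation of compound with enzyme before ATP start.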 The series is classed as biochemical. The note with it: ATP 200 μM; 40 min at room temperature.
Series [2] has as its system Collagen I (COL1A1) in LX-2 cells. Put plainly: Collagen and Alpha-SMA in LX-2 (Western blot after TGF-β stimulation).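 Also: cells serum-starved in 0.4% FBS before treatment, lysates analysed by Western blot, DMSO-only wells as blank and TGF-β alone as maximal induction control, three independent experiments.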 The series is classed as cell-based. Particulars: Homo sapiens, 4 ng/ml TGF-β for 48 hours, Collagen I normalized to GAPDH.
Experimental: 3 ml of 0.25% Trypsin-EDTA solution was then added and cells were incubated at 37° C. for 5 min for each T150-flask. 7 ml of culture medium was added to stop trypsinization. The cells were centrifuged at 300×g for 5 min. Supernatant medium was discarded and cells were re-suspended with fresh culture medium. The cells were counted with Cell viability analyzer. 5.0E+05 cells/well were seeded into 6-well plate containing 2.0 mL of culture medium. The cells were cultured overnight at 37° C. The next day, the complete medium was replaced with medium with 0.4% FBS for starvation. […] In parallel, medium containing only DMSO and TGF-β was used as blank control and positive control, respectively. TGF-β induction was used as maximum induction positive control. The culture medium was discarded at the end of induction. Cells were washed once using ice-cold DPBS. RIPA buffer was added to lyse the cells for 20 min. The cells were then scraped off the culture plate, collected in a tube and centrifuged. The supernatant was stored at −80° C. The total amount of protein in the lysate was determined using BCA Protein Assay kit. The cell treatment of fibrosis assay was performed in three independent experiments for each compound.
All the lysate samples were adjusted to the same protein concentration with RIPA buffer after BCA assay. […] The denatured samples were used for electrophoresis. Western blot was performed according to the standard protocols. The same volume of protein was loaded onto 4-12% Bis-Tris gel. Duplicate lysates of samples were loaded onto two gels. The gels were run for 0.5 h at 80 V and 120 V for another 1 h. When the electrophoresis was completed, the gels containing target protein Collagen I (COL1A1) were transferred onto NC membrane using Trans-Blot Electrophoretic Transfer Cell for 90 min at 100 V. The iBlot™ 2 Gel Transfer Device was used to transfer α-SMA and GAPDH at 20 V for 7 min. All the membranes were blocked in TBST buffer with 5% nonfat dry milk in at RT for 1 h and then incubated with primary antibody anti-COL1A1 and anti-α-SMA in TBST buffer containing 5% BSA at 4° C. overnight. For GAPDH detection, the membrane with α-SMA immunoblots were stripped with Restore™ Western Blot Stripping Buffer after detection. And the membranes were re-blocked and then re-probed with primary antibody anti-GAPDH antibody at room temperature (RT) for 2 h. After incubation with primary antibodies, membranes were washed with TBST, then incubated with the secondary antibody at RT for 1 h. Blots were visualized using the instrument Image Quant LAS-4000. The chemiluminescent signals derived from ECL Western blotting reagents were captured. The bands integrated intensity from 16-bit blot images was used for quantitation with the software (1D component of ImageQuant TL). The quantification raw data of the two duplicated gels was obtained from ImageQuant TL. Collagen I and α-SMA proteins expression level was normalized to GAPDH for each gel. The average normalization data of the two duplicated gels was calculated and applied to calculate IC50 using an equation for a sigmoidal dose response (variable slope) of GraphPad™ Prism software. The equation is Y=Bottom+(Top-Bottom)/(1+10^((Log IC50−X)*Hillslope). Note: X is the logarithm of compound concentration, Y is the average normalization data

Sequence of MAP4K4 (h) (O95819 whole entry): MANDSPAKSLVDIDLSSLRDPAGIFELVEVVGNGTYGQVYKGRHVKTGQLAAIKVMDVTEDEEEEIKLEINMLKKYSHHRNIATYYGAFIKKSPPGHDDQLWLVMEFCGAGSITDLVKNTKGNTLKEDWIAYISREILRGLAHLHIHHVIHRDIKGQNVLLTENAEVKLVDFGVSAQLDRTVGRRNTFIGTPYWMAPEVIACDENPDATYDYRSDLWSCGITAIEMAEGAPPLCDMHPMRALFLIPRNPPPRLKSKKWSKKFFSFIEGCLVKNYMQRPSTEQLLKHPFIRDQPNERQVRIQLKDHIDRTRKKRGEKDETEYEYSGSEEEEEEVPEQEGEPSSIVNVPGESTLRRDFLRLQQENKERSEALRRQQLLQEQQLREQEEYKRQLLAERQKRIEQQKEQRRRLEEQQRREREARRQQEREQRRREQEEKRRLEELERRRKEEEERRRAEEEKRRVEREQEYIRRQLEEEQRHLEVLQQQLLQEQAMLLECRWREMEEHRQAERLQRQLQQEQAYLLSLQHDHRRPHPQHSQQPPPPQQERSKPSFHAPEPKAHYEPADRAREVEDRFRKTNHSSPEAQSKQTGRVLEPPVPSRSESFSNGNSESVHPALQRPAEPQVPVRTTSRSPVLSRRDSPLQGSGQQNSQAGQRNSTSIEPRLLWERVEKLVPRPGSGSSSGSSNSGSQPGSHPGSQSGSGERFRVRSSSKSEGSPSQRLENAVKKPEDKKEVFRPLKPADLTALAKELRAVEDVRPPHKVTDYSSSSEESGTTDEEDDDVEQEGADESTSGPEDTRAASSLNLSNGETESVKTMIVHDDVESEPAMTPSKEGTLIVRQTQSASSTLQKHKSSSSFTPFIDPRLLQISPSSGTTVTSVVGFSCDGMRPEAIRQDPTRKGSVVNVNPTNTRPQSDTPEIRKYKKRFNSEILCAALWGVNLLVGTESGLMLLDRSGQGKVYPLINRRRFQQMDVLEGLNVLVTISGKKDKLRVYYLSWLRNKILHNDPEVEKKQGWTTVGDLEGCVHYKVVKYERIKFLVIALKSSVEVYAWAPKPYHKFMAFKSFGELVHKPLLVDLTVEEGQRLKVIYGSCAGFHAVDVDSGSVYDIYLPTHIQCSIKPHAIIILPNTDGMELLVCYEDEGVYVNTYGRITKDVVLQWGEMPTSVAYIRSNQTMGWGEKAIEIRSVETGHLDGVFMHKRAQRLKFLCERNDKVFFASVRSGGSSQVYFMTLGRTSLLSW
Sequence of TNIK(h) (Q9UKE5 whole entry): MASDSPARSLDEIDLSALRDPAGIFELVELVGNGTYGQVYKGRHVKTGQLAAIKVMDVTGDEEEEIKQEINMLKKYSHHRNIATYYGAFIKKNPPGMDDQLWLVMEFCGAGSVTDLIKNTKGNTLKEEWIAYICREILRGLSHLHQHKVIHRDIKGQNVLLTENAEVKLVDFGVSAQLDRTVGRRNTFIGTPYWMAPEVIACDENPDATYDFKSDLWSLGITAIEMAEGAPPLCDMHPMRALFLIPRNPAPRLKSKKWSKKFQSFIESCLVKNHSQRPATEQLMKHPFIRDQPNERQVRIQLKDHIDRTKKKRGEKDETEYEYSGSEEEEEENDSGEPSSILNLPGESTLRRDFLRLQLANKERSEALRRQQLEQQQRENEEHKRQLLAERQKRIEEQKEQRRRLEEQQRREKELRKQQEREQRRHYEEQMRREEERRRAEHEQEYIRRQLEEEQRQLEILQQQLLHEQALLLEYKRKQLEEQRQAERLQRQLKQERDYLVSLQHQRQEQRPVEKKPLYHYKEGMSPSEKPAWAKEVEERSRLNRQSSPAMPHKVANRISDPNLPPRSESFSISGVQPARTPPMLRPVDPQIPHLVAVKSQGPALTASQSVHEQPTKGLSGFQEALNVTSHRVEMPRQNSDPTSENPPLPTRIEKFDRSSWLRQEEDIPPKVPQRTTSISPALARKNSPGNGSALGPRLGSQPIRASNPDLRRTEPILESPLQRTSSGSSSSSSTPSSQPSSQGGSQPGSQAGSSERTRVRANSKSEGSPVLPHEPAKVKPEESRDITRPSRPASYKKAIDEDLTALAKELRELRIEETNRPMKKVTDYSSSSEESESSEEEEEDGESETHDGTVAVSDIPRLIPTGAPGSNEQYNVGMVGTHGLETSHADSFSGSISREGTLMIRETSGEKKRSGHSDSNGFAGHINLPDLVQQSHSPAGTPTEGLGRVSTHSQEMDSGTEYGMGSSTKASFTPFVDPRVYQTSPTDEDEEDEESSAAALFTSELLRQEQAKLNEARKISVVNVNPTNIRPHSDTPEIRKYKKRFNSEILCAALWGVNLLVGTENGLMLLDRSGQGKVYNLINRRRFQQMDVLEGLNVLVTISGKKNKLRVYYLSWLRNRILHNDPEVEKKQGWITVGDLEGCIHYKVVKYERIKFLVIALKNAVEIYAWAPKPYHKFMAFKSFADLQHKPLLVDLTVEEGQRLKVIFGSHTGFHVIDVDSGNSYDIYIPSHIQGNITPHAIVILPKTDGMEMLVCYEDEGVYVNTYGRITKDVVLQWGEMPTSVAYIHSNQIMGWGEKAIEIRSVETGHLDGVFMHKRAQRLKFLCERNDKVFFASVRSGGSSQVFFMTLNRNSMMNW
Experimental for MAP4K4 (h): (§1) The reaction is initiated by the addition of the Mg/ATP mix. After incubation for 40 minutes at room temperature, the reaction is stopped by the addition of phosphoric acid to a concentration of 0.5%.
INCUBATION: 40 min at Room temperature
COMPOUND DILUTION SCHEME: All compounds supplied were prepared to a working stock of 50× final assay concentration in 100% DMSO. Where appropriate, more concentrated stocks were diluted manually to 50× using 100% DMSO. Compounds supplied as powders were reconstituted to a 10 mM stock in 100% DMSO before further dilution to 50×.
ASSAY PROCEDURE: The required volume of the 50× stock of test compound was added to the assay before a reaction mix containing the enzyme and substrate was added. The reaction was initiated by the addition of ATP at the selected concentration. There was no pre-incubation of the compound with the enzyme/substrate mix prior to ATP addition.
Results are expressed as kinase activity remaining, as a percentage of the DMSO control. This is calculated using the following formula: Mean of Sample Counts−Mean of Blank Counts/Mean of Control Counts
(§2) For IC50 determinations, data are analyzed using XLFit version 5.3 (ID Business Solutions). Sigmoidal dose-response (variable slope) curves are fit based on the mean result for each test concentration using non-linear regression analysis. Where the top and/or bottom of the curve fall >10% out with 100 and 0, respectively, either or both of these limits may be constrained at 100 and 0, provided that the QC criterion on R2 is met.
Experimental for TNIK(h): as §1
INCUBATION: 40 min at Room temperature
COMPOUND DILUTION SCHEME: All compounds supplied were prepared to a working stock of 50× final assay concentration in 100% DMSO. Where appropriate, more concentrated stocks were diluted manually to 50× using 100% DMSO. Compounds supplied as powders were reconstituted to a 10 mM stock in 100% DMSO before further dilution to 50×. ASSAY PROCEDURE: The required volume of the 50× stock of test compound was added to the assay before a reaction mix containing the enzyme and substrate was added. The reaction was initiated by the addition of ATP at the selected concentration. There was no pre-incubation of the compound with the enzyme/substrate mix prior to ATP addition. […] Results are expressed as kinase activity remaining, as a percentage of the DMSO control. This is calculated using the following formula:
as §2

Regarding `CC(C)n1cnc(-c2ccc(F)cc2)c1-c1nc(C(=O)Nc2ccc(C(=O)O)cc2)c[nH]1` [Compound 113, 4-(5′-(4-fluorophenyl)-3′-isopropyl-1H,3′H-[2,4′-biimidazole]-4-carboxamido)benzoic acid], the “Human Liver Microsome (μM/min/mg)” value in series [1] is “+++ (1-10 μM/min/mg as +++)”. Moreover, the IC50 – broadly, the point on the concentration scale where inhibition reaches its midpoint – on TNIK(h) is 1 to 12 nM; against MAP4K4 (h) it was greater than 120 nM.
Consider `CN1CCN(c2ccc(NC(=O)c3c[nH]c(-c4c(-c5ccc(F)cc5)ncn4[C@H]4CC[C@@H](O)CC4)n3)cc2)CC1` [Compound 172], for which the IC50 at TNIK(h) lay within 12 to 120 nM.
As to `CN1CCN(c2ccc(NC(=O)c3c[nH]c(-c4c(-c5ccc(F)cc5)ncn4CC(F)(F)F)n3)cc2)CC1=O` [Compound 194, 5′-(4-fluorophenyl)-N-(4-(4-methyl-3-oxopiperazin-1-yl)phenyl)-3′-(2,2,2-trifluoroethyl)-1H,3′H-[2,4′-biimidazole]-4-carboxamide], the IC50 is 12 to 120 nM at TNIK(h), greater than 120 nM on MAP4K4 (h) and 0.1 to 1 nM in series [2].
Regarding `CC(C)n1cnc(-c2ccc(F)cc2)c1-c1nc(C(=O)Nc2ccc(N3CCNCC3)cc2)c[nH]1` [Compound 181, 5′-(4-fluorophenyl)-3′-isopropyl-N-(4-(piperazin-1-yl)phenyl)-1H,3′H-[2,4′-biimidazole]-4-carboxamide], in series [1], the “Human Liver Microsome (μM/min/mg)” value is reported as “++ (10-100 μM/min/mg as ++)”. The IC50 at TNIK(h) and at MAP4K4 (h) was 12 to 120 nM in each case.
For `CC(=O)N1CCN(c2ccc(NC(=O)c3c[nH]c(-c4c(-c5ccc(F)cc5)ncn4CC(F)(F)F)n3)cc2)CC1` [Compound 191, N-(4-(4-acetylpiperazin-1-yl)phenyl)-5′-(4-fluorophenyl)-3′-(2,2,2-trifluoroethyl)-1H,3′H-[2,4′-biimidazole]-4-carboxamide], the IC50 at TNIK(h) fell in the range of 12 to 120 nM; against MAP4K4 (h), 12 to 120 nM; in series [2], 0.1 to 1 nM.
With `CC(C)n1cnc(-c2ccc(F)cc2)c1-c1nc(C(=O)Nc2ccc(N3CCN(C)C(=O)C3)cc2)c[nH]1` [Compound 185, 5′-(4-fluorophenyl)-3′-isopropyl-N-(4-(4-methyl-3-oxopiperazin-1-yl)phenyl)-1H,3′H-[2,4′-biimidazole]-4-carboxamide], the IC50 lay in the range of 12 to 120 nM on TNIK(h), 12 to 120 nM against MAP4K4 (h) and 0.1 to 1 nM in series [2].
`O=C(Nc1ccccc1F)c1occc1-c1c(-c2ccc(F)cc2)ncn1CC1CCOC1` (stereo not shown) [Compound 4] had an IC50 in series [2] greater than 1 nM.
Take `CC(C)n1cnc(-c2ccc(F)cc2)c1-c1nc(C(=O)Nc2ccc(N3CCN(C(N)=O)CC3)cc2)c[nH]1` [Compound 99, N-(4-(4-carbamoylpiperazin-1-yl)phenyl)-5′-(4-fluorophenyl)-3′-isopropyl-1H,3′H-[2,4′-biimidazole]-4-carboxamide]: in series [1], the “Human Liver Microsome (μM/min/mg)” value is given as “++ (10-100 μM/min/mg as ++)”. The IC50 at TNIK(h) and against MAP4K4 (h) was greater than 120 nM each time.
With `CC(C)n1cnc(-c2ccc(F)cc2)c1-c1nc(C(=O)Nc2ccc(N3C[C@H]4CC[C@@H](C3)N4C)cc2)c[nH]1` [Compound 186, 5′-(4-fluorophenyl)-3′-isopropyl-N-(4-((1R,5S)-8-methyl-3,8-diazabicyclo[3.2.1]octan-3-yl)phenyl)-1H,3′H-[2,4′-biimidazole]-4-carboxamide], the IC50 on TNIK(h) and against MAP4K4 (h) was 1 to 12 nM in each case.
Turning to `CC(C)n1cnc(-c2ccc(C(F)(F)F)cc2)c1-c1nc(C(=O)Nc2ccc(N3CCN(CCO)CC3)cc2)c[nH]1` [Compound 134], the “Human Liver Microsome (μM/min/mg)” value in series [1] is listed as “++ (10-100 μM/min/mg as ++)”. The IC50 on TNIK(h) and against MAP4K4 (h) was greater than 120 nM each time.
On to `CC(C)n1cnc(-c2ccc(F)cc2)c1-c1nc(C(=O)Nc2ccc(N3CCN(CC(F)(F)F)CC3)cc2)c[nH]1` [Compound 189, 5′-(4-fluorophenyl)-3′-isopropyl-N-(4-(4-(2,2,2-trifluoroethyl)piperazin-1-yl)phenyl)-1H,3′H-[2,4′-biimidazole]-4-carboxamide], for which the IC50 at TNIK(h) is 12 to 120 nM; against MAP4K4 (h), 12 to 120 nM; in series [2], 0.1 to 1 nM.
Consider `O=C(Nc1ccc(N2CCN(CCO)CC2)cc1)c1c[nH]c(-c2c(-c3ccc(F)cc3)ncn2[C@H]2CC[C@H](O)CC2)n1` [Compound 158, 5′-(4-fluorophenyl)-3′-((1r,4r)-4-hydroxycyclohexyl)-N-(4-(4-(2-hydroxyethyl)piperazin-1-yl)phenyl)-1H,3′H-[2,4′-biimidazole]-4-carboxamide], for which, in series [1], the “Human Liver Microsome (μM/min/mg)” value was “+++ (1-10 μM/min/mg as +++)”. Besides, the IC50 fell in the range of 1 to 12 nM at TNIK(h) and 12 to 120 nM against MAP4K4 (h).
Consider `O=C(Nc1ccc(N2CCN(CC(F)(F)F)CC2)cc1)c1c[nH]c(-c2c(-c3ccc(F)cc3)ncn2CC(F)(F)F)n1` [Compound 192, 5′-(4-fluorophenyl)-3′-(2,2,2-trifluoroethyl)-N-(4-(4-(2,2,2-trifluoroethyl)piperazin-1-yl)phenyl)-1H,3′H-[2,4′-biimidazole]-4-carboxamide], for which the IC50 was 12 to 120 nM at TNIK(h), greater than 120 nM on MAP4K4 (h) and less than 0.1 nM in series [2].
Turning to `CC(C)n1cnc(-c2ccc(C(F)(F)F)cc2)c1-c1nc(C(=O)Nc2ccc(N3CCN(C)CC3)cc2)c[nH]1` [Compound 142, 3′-isopropyl-N-(4-(4-methylpiperazin-1-yl)phenyl)-5′-(4-(trifluoromethyl)phenyl)-1H,3′H-[2,4′-biimidazole]-4-carboxamide], in series [1], the “Human Liver Microsome (μM/min/mg)” value is “+ (>100 μM/min/mg as +)”. The IC50 at TNIK(h) and against MAP4K4 (h) was greater than 120 nM in each case.
The compound `O=C(Nc1ccccc1F)c1occc1-c1c(-c2cccnc2)ncn1C1CCCC1` [Compound 1] returned an IC50 in series [2] greater than 1 nM.
As for `C[N+]1([O-])CCN(c2ccc(NC(=O)c3c[nH]c(-c4c(-c5ccc(F)cc5)ncn4CC(F)(F)F)n3)cc2)CC1` [Compound 166, 4-(4-(5′-(4-fluorophenyl)-3′-(2,2,2-trifluoroethyl)-1H,3′H-[2,4′-biimidazole]-4-carboxamido)phenyl)-1-methylpiperazine 1-oxide], the “Human Liver Microsome (μM/min/mg)” value in series [1] is on record as “+++ (1-10 μM/min/mg as +++)”. Besides, the IC50 at TNIK(h) and against MAP4K4 (h) was greater than 120 nM throughout.
Consider `CC(C)n1cnc(-c2ccc(F)cc2)c1-c1nc(C(=O)Nc2ccc(CCCCC(=O)O)cc2)c[nH]1` [Compound 132, 5-(4-(5′-(4-fluorophenyl)-3′-isopropyl-1H,3′H-[2,4′-biimidazole]-4-carboxamido)phenyl)pentanoic acid], for which the “Human Liver Microsome (μM/min/mg)” value in series [1] is “+++ (1-10 μM/min/mg as +++)”. Further, the IC50 at TNIK(h) and against MAP4K4 (h) was 12 to 120 nM in each case.
For `CC(C)n1cnc(-c2ccc(Cl)cc2)c1-c1nc(C(=O)Nc2ccc(CCC(=O)O)cc2)c[nH]1` [Compound 137, 3-(4-(5′-(4-chlorophenyl)-3′-isopropyl-1H,3′H-[2,4′-biimidazole]-4-carboxamido)phenyl)propanoic acid], the “Human Liver Microsome (μM/min/mg)” value in series [1] is reported as “+++ (1-10 μM/min/mg as +++)”. Moreover, the IC50 was 1 to 12 nM on TNIK(h) and greater than 120 nM at MAP4K4 (h).
In the case of `O=C(NC1CCOCC1)c1ccc(-c2c(-c3ccc(F)cc3)ncn2C2CCCC2)o1` [Compound 39], in series [2], the IC50 was greater than 1 nM.
For the compound `CC(=O)N1CCN(c2ccc(NC(=O)c3c[nH]c(-c4c(-c5ccc(F)cc5)ncn4C(C)C)n3)cc2)CC1` [Compound 188, N-(4-(4-acetylpiperazin-1-yl)phenyl)-5′-(4-fluorophenyl)-3′-isopropyl-1H,3′H-[2,4′-biimidazole]-4-carboxamide], the IC50 on TNIK(h) was 1 to 12 nM; against MAP4K4 (h), 12 to 120 nM; in series [2] it was 0.1 to 1 nM.
For the compound `CN1CCN(c2ccc(NC(=O)c3c[nH]c(-c4c(-c5ccc(F)cc5)ncn4CC(C)(C)C)n3)cc2)CC1` [Compound 135, 5′-(4-fluorophenyl)-N-(4-(4-methylpiperazin-1-yl)phenyl)-3′-neopentyl-1H,3′H-[2,4′-biimidazole]-4-carboxamide], in series [1], the “Human Liver Microsome (μM/min/mg)” value is reported as “+ (>100 μM/min/mg as +)”. The values for the IC50 on TNIK(h) and on MAP4K4 (h) were 12 to 120 nM and greater than 120 nM, respectively.
Turning to `CN1CCN(c2ccc(NC(=O)c3c[nH]c(-c4c(-c5ccc(F)cc5)ncn4C)n3)cc2)CC1` [Compound 119, 5′-(4-fluorophenyl)-3′-methyl-N-(4-(4-methylpiperazin-1-yl)phenyl)-1H,3′H-[2,4′-biimidazole]-4-carboxamide], in series [1], the “Human Liver Microsome (μM/min/mg)” value was “++ (10-100 μM/min/mg as ++)”. The half-inhibitory concentration (IC50) at TNIK(h) and at MAP4K4 (h) was greater than 120 nM throughout.
Consider `CC(C)n1cnc(-c2ccc(F)cc2)c1-c1nc(C(=O)Nc2ccc(CCC(=O)O)cc2)c[nH]1` [Compound 102, 3-(4-(5′-(4-fluorophenyl)-3′-isopropyl-1H,3′H-[2,4′-biimidazole]-4-carboxamido)phenyl)propanoic acid], for which, in series [1], the “Human Liver Microsome (μM/min/mg)” value is reported as “+++ (1-10 μM/min/mg as +++)”. Besides, the results for the IC50 at TNIK(h) and at MAP4K4 (h) were 12 to 120 nM and greater than 120 nM, respectively.
As for `CC(C)n1cnc(-c2ccc(F)cc2)c1-c1nc(C(=O)Nc2ccc(N3CCN(S(N)(=O)=O)CC3)cc2)c[nH]1` [Compound 97, 5′-(4-fluorophenyl)-3′-isopropyl-N-(4-(4-sulfamoylpiperazin-1-yl)phenyl)-1H,3′H-[2,4′-biimidazole]-4-carboxamide], in series [1], the “Human Liver Microsome (μM/min/mg)” value is listed as “+ (>100 μM/min/mg as +)”. Also, the IC50 on TNIK(h) and against MAP4K4 (h) was 12 to 120 nM throughout.
Take `CC(C)n1cnc(-c2ccc(C(F)(F)F)cc2)c1-c1nc(C(=O)Nc2ccc(CCC(=O)O)cc2)c[nH]1` [Compound 133, 3-(4-(3′-isopropyl-5′-(4-(trifluoromethyl)phenyl)-1H,3′H-[2,4′-biimidazole]-4-carboxamido)phenyl)propanoic acid]: the “Human Liver Microsome (μM/min/mg)” value in series [1] is given as “+++ (1-10 μM/min/mg as +++)”. Also, the IC50 on TNIK(h) and against MAP4K4 (h) was greater than 120 nM each time.
Consider `CN1CCN(c2ccc(NC(=O)c3c[nH]c(-c4ncn(C(F)F)c4-c4ccc(F)cc4)n3)cc2)CC1` [Compound 175], for which, on TNIK(h), the IC50 fell in the range of 1 to 12 nM.

The record behind these values is patent US11530197B2, “Analogs for the treatment of disease” (Insilico Medicine IP Limited, priority 2021, dated 2022).
